Experimental data taken from patent US11254654B2, “Heterochromatin gene repression inhibitors” (The University of North Carolina at Chapel Hill, priority 2017, dated 2022).
Where a name gives a salt, the structure may show the parent alone.

Legend:
[1] = system: CiA:Oct4 N118/N163 cells; experiment: Minus rapamycin counter screen for toxicity and cell differentiation; type: cell-based; details: 10 μM compound, no rapamycin, 48 hrs
Procedure: Day 0, CiA:Oct4 N118/163 cells were grown in ES media and seeded at a density of 10,000 cells per well (100,000 cells/mL) into gelatin coated 96 well plates. Day 1, media was aspirated and replaced with […] fresh ES media containing +/−6 nM rapamycin and 10 μM dilution of compounds from the EpiG compound set. Day 2, 100 μL fresh ES media containing +/−6 nM rapamycin and 10 μM dilution of compounds from the EpiG compound set was added as on Day 1. Day 3, the media was aspirated out of the wells and the cells were washed with PBS and trypsinized using 0.25% trypsin-EDTA. Trypsin was quenched with serum. Cells were resuspended by pipetting to prepare the plates for flow cytometry analysis.
Flow cytometry was performed using an Intellicyt iQue Screener and analyzed with FlowJo software. Cell populations were gated based on forward and side scatter area. Single cell populations were isolated using forward scatter area by forward scatter height gating. Dead or dying cells that equally fluoresced in the GFP and APC channels upon excitation with 488 nm laser were omitted as autofluorescent, and the remaining cells were gated into GFP (−) and GFP (+) populations. […] Statistics were performed using standard T-test analysis.
The CiA:Oct4 N118/N163 recruitment system also functions as an internal counter screen for toxicity and cell differentiation in the absence of rapamycin recruited csHP1α. […]

[2] = system: csHP1γ; experiment: csHP1γ inhibition assay, CiA:Oct4 N118/N192 cells; type: cell-based, mouse; details: 5 μM, 48 hrs, + 6 nM rapamycin
Procedure: Day 0, CiA:Oct4 N118/N192 cells were grown and cultured in 96 well plate format with 10,000 cells seeded per well. Day 1, media was aspirated and replaced with fresh ES media containing 5 μM of top screen compounds and +/−6 nM rapamycin. Day 2, media was aspirated and replaced with fresh ES media containing 5 μM of top screen compounds and +/−6 nM rapamycin. Day 3, wells were aspirated and washed with PBS prior to sample preparation and analysis by flow cytometry.
After 48-hrs of 5 μM compound treatment with and without rapamycin, the % GFP (+) populations were determined by flow cytometry analysis.
Flow cytometry analysis was used to determine the % GFP (+) population. Data was converted to % inhibition for the +rapamycin samples. Experiments were performed in biological triplicate. (n≥3) (p≤0.05*, 0.01**).

[3] = biological target: T1, GLP (Homo sapiens, UniProt Q9H9B1); experiment: In vitro activity against GLP; type: biochemical; details: data not shown
T1 sequence (Q9H9B1 1-1298): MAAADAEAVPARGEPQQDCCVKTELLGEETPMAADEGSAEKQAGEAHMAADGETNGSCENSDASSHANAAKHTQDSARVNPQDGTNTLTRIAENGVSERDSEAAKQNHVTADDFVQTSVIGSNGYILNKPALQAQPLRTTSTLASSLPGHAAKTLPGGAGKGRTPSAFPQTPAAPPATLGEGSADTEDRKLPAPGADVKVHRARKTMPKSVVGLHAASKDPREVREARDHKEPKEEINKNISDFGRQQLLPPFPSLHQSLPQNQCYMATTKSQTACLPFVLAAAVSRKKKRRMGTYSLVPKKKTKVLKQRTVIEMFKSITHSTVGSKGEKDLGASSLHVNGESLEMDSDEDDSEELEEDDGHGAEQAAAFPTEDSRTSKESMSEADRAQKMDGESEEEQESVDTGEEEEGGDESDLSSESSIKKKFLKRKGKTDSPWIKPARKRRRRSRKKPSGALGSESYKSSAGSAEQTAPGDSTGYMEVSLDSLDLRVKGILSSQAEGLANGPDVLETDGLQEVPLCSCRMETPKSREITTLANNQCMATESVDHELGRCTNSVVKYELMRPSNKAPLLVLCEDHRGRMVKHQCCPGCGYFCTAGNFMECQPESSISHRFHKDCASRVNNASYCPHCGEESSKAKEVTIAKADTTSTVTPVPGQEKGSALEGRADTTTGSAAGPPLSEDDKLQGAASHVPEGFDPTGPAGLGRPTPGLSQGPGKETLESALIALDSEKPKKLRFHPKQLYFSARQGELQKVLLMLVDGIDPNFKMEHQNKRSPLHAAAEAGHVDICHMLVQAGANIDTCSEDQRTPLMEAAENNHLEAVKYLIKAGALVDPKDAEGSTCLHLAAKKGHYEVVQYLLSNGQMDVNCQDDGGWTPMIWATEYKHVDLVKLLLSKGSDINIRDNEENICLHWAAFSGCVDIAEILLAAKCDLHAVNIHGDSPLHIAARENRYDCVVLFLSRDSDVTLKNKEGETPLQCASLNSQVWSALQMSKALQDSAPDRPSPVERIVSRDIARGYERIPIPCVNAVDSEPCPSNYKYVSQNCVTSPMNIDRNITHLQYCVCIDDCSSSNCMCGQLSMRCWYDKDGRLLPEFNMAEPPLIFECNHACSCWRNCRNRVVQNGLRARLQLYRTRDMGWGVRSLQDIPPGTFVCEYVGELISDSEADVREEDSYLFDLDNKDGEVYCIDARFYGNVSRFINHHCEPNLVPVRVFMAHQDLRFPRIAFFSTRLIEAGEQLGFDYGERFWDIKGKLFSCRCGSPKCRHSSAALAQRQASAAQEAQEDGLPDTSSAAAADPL

**Q.** For COc1cc2nc(N3CCCC3)nc(N[C@H]3CCCNC3)c2cc1OC [compound 1, (S)-6,7-Dimethoxy-N-(Piperidin-3-yl)-2-(Pyrrolidin-1-yl)Quinazolin-4-Amine Trifluoroacetic Acid Salt], which “GFP positive population levels without csHP1α recruitment” value [1] is on record?
**A.** did not decrease GFP positive population levels

**Q.** What about the “Inhibition of csHP1γ-mediated repression of CiA:Oct4 locus” value [2] of the same compound?
**A.** most potent inhibitors of csHP1γ

**Q.** What about the “Activity against GLP in vitro” value [3] of the same compound?
**A.** no detectable activity
